Drawing on US7101896B2, “Pharmaceutical compositions and methods for use” (Targacept, Inc., priority 1999, dated 2006), this text covers Ki for eight compounds.

CNS nicotinic receptors, sequence (P09483 31-630): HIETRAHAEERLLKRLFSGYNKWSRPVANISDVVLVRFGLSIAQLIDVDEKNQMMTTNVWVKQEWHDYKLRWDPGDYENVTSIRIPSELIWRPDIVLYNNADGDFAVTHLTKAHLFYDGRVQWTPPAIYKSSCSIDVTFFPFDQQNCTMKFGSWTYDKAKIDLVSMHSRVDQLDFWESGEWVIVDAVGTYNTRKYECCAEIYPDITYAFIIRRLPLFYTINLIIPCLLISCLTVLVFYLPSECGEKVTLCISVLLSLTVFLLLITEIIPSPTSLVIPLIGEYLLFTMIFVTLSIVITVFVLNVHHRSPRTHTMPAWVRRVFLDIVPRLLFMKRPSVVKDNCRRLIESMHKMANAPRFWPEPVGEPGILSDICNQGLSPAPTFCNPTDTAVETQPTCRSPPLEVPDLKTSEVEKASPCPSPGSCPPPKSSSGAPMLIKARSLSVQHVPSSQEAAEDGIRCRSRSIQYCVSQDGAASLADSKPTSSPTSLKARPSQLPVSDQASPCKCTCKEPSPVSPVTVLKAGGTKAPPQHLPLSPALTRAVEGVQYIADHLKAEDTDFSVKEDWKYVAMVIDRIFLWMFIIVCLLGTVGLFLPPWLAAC
CNS nicotinic receptors, sequence (P12390 25-500): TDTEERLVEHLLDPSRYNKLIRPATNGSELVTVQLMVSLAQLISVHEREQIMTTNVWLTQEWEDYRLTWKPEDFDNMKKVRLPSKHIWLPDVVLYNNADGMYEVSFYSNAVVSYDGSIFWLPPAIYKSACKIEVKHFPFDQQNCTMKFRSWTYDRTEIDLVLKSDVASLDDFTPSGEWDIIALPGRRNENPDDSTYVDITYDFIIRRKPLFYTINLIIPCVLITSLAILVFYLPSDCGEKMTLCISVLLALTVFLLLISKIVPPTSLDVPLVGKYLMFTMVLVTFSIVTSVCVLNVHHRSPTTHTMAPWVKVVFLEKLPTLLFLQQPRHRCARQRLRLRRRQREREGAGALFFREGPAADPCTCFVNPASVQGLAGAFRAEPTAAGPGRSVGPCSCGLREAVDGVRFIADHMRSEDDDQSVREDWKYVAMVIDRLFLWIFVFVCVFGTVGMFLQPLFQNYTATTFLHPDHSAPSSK

One assay has as its target CNS nicotinic receptors (Rattus norvegicus, UniProt P09483+P12390). In words: Determination of binding to relevant receptor sites. Conditions: calculated from the IC50 values using the method of Cheng et al.; techniques of U.S. Pat. No. 5,597,919; read-out: Ki (inhibition constant, receptor binding).
One may read the Ki as a measure of affinity in units of concentration, obtained from inhibition or displacement. Consider “(S)-3-isopropoxy-5-(pyrrolidin-2-ylethynyl)pyridine hemigalactarate [Sample No. 7]”, for which the Ki was 2 nM. As to “(S)-(E)-3(2-pyrrolidin-2-ylvinyl)pyridine hemigalactarate [Sample No. 2]”, the Ki was 306 nM. Still for that read-out and setting: the same measure for “(S)-3-(3-pyridyloxy)-5-(pyrrolidin-2-ylethynyl)pyridine hemigalactarate [Sample No. 15]”: 13 nM. On the same count and under the same terms, the same measure for “(S)-3-(phenoxyphenyl)-5-(pyrrolidin-2-ylethynyl)pyridine hemigalactarate [Sample No. 9]”: 530 nM. Still for that read-out and setting: the same measure for “(E,S)-3-cyclopentyloxy-5-(pyrrolidin-2-ylvinyl)pyridine hemigalactarate [Sample No. 19]”: 51 nM. “(S)-3-(pyrrolidin-2-ylethynyl)-5-(tetrahydropyran-4-yloxy)pyridine hemigalactarate [Sample No. 16]”: the Ki is 7 nM. The same measure, in the same setting: to “(S)-3-(4-methoxyphenoxy)-5-(pyrrolidin-2-ylethynyl)pyridine hemigalactarate [Sample No. 10]” belongs 33 nM.

Still in this assay, the particulars now being: read-out: Ki (inhibition constant, receptor binding).
For the compound `Oc1ccc(Oc2cncc(C#C[C@@H]3CCCN3)c2)cc1` [Sample No. 11, (S)-3-(4-hydroxyphenoxy)-5-(pyrrolidin-2-ylethynyl)pyridine], the Ki turned out to be 2 nM.
